We go through two molecules from patent publication US20250114369A1, “COMPOUNDS AND METHODS FOR TREATMENT OF VIRAL INFECTIONS” (Gilead Sciences, Inc., priority 2023, published 2025).

Data set [1] deals with Caco-2 cells (clone C2BBel). In words: CACO-2 permeability. It counts as in vitro ADME. The following applies: donor pH 6.5, receiver pH 7.4; for DM Caco2 A to B: forward (A to B); for DM Caco2 B to A: reverse (B to A). For orientation: Caco-2 monolayers are a common model of the intestinal barrier.
Data set [2] is classed as in vitro ADME. The following applies: 2 μM. The gist of the method: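 Compound added to duplicate plasma aliquots at 37 °C to 2 μM final; sampled at 0.05, 0.5, 1, 2, 3 and 4 hr and quenched with internal-standard solution. Remaining compound quantified by analyte/internal standard peak area ratio by LC-HRMS (Q-Exactive, 5 ppm mass tolerance).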
Data set [3] concerns SARS Coronavirus 2 recombinant with NanoLuc (SARS-CoV2-NLuc). The experiment in a line: organism not typed. It counts as cell-based. The following applies: 48 h.
Data set [4] relates to Respiratory syncytial virus recombinant with luciferase (RSV-Luc5). In words: microbe, parasite or virus in culture. The settings on record: human respiratory syncytial virus, NHBE, 72 h, read-out: RSV NHBE EC50 (nM). It counts as cell-based.
Data set [5] is described as follows: in vitro. The format is in vitro ADME. The following applies: human, s9, pH 7.4. Here is the method: Duplicate aliquots of test compound or positive control substrate (GS-7340) were added to S9 stock diluted with 100 mM potassium phosphate buffer, pH 7.4, to obtain a protein concentration of 2.4 mg/mL. The S9 metabolic reactions were initiated by the addition of the substrates to the S9 reaction mixture to a final concentration of 2 μM. At 2, 12, 25, 45, 65 and 90 min, 25 μL aliquots of the reaction mixture were transferred to plates containing 225 μl of IS/Q solution. After quenching, the plates were centrifuged at 3000×g for 30 minutes, and 150 μL aliquots of each supernatant were diluted with 150 μL water. Aliquots (10 μL) of the diluted supernatant were analyzed on a Thermo Q-Exactive mass spectrometer as described below. Quantification of test compounds and controls was performed by analyte/internal standard peak area ratio (PAR) values measured on a Thermo Q-Exactive mass spectrometer coupled to a Dionex UltiMate 3000 HPLC with a Leap Technologies HTC PAL autosampler. The column used was a Thermo Hypersil GOLD (1.9 μm particle size, 2.1×50 mm). Mobile phase A consisted of […] formic acid in water. Mobile phase B consisted of 0.1% (v/v) formic acid in acetonitrile. Elution of analytes was achieved by a series of linear gradients of acetonitrile in water containing 0.1% (v/v) formic acid. The mass spectrometer was calibrated on a weekly basis and mass tolerance of 5 ppm was used.

The nature of data set [6]: in vitro. The following applies: human. It counts as cell-based.
Another data set is described as follows: physchem. The format is physicochemical. The following applies: pH 7, aqueous buffer, thermodynamic from solid. The procedure:
The aqueous solubility of compounds over a time of 24 hours was assessed. Solubility was determined at ambient temperature in a 50 mM phosphate buffered pH7 solution with 150 mM NaCl (to achieve isotonicity). Solids were added to the buffered solution in 1.5-mL Eppendorf tubes, vortexed for 1 minute, then agitated for 24 hours in an Eppendorf ThermoMixer C. To determine concentration in solution, the suspensions were centrifuged for 15 min at 15,000 rpm. Supernatants were diluted to a volume of 1 mL with 30:70 v/v acetonitrile:water. All diluted supernatants were analyzed by UPLC using a Waters Acquity UPLC with a PDA UV detector.

Data set [7] in a line: in vitro. It counts as in vitro ADME. The following applies: human, s9, pH 7.4. The method, boiled down:
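Intestinal S9 stability: compounds at 2 μM final in PMSF-free intestinal S9 (1.0 mg/mL protein, 100 mM PBS pH 7.4), duplicates, GS-7340 as positive control substrate. Samples at 0, 10, 20, 30, 60 and 120 min quenched; analyte quantified by LC-MS (Q-Exactive) as analyte/internal standard peak area ratio.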
The source holds these as a separate data set.

For orientation: EC50 means the concentration that produces a half-maximal response. As a reminder, the half-life is the time needed for the level to fall by half in the phase considered. Read a high half-life as slow loss. By CC50 is commonly meant the concentration at which the toxic effect on the cells reaches its halfway point. The low end stands for greater toxicity to the cells, the high end for lower toxicity to the cells. Usually solubility (thermodynamic) stands for the concentration in solution at equilibrium with solid.

Converted amounts (≈) assume the structure as drawn.
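Wherever CC50 is given: uninfected MT-4 cells over 4-5 days by CellTiter-Glo.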

Take `CCOC(=O)c1cccn1C(=O)OC[C@H]1O[C@@](C#N)(c2ccc3c(N)ncnn23)[C@H](OC(C)=O)[C@@H]1OC(C)=O` [Compound 20, O1-[[(2R,3R,4R,5R)-3,4-diacetoxy-5-(4-aminopyrrolo[2,1-f][1,2,4]triazin-7-yl)-5-cyano-tetrahydrofuran-2-yl]methyl]O2-ethyl pyrrole-1,2-dicarboxylate]: the “DM Caco2 A to B” value in data set [1] is 3.16. For the same molecule, the “DM Caco2 B to A” value in data set [1] worked out at 9.63. For the same molecule, the “STA Human Plasma 37” value in data set [2] is given as 67.544. Besides, the results for the EC50 in data set [3] and in data set [4] were 4.28 µM and 731 nM, respectively. The values for the half-life at 2 μM in the data set “in vitro [5]” and in “in vitro [7]” were no more than 120 s and 37.6 s, respectively. The molecule further came in with a CC50 in the data set “in vitro [6]” greater than 50 µM. The same molecule showed a thermodynamic solubility at 24 h in “physchem” of 10 µg/mL (≈ 18.5 µM).

`CC(=O)O[C@H]1[C@@H](OC(C)=O)[C@](C#N)(c2ccc3c(N)ncnn23)O[C@@H]1COC(=O)N1CCCCC1` [Compound 21, [(2R,3R,4R,5R)-3,4-diacetoxy-5-(4-aminopyrrolo[2,1-f][1,2,4]triazin-7-yl)-5-cyano-tetrahydrofuran-2-yl]methyl piperidine-1-carboxylate]: the “DM Caco2 A to B” value in data set [1] was 3.99. For the same molecule, the “DM Caco2 B to A” value in data set [1] is 19.68. The “STA Human Plasma 37” value in data set [2] is on record as 11.334. Also, the EC50 in data set [3] was greater than 50 µM; in data set [4] it was greater than 50000 nM. The figures for the half-life at 2 μM in “in vitro [5]” and in “in vitro [7]” were no more than 120 s and 40.4 s, respectively. The molecule also registered a CC50 in the data set “in vitro [6]” greater than 50 µM. The molecule further came in with a thermodynamic solubility at 24 h in the data set “physchem” of 370 µg/mL (≈ 761 µM).
